In ChEMBL document CHEMBL4118122, “Identification and biological evaluation of thiazole-based inverse agonists of RORγt” (Bioorg Med Chem Lett, 2018):
Values after ≈ are worked out from the molar mass of the structure shown.

Experiments:
PXR (NR1I2) [1] = molecular target: T1, PXR (NR1I2) (Homo sapiens, UniProt O75469); test: […] at PXR LBD (unknown origin) expressed in HEK293 cells […] at 5 uM after 16 hrs by luciferase reporter gene assay relative to rifampicin; assay type: ADME, cell-based; conditions: HEK293 cells expressing PXR LBD, read-out: Efficacy
T1 sequence (O75469 whole entry): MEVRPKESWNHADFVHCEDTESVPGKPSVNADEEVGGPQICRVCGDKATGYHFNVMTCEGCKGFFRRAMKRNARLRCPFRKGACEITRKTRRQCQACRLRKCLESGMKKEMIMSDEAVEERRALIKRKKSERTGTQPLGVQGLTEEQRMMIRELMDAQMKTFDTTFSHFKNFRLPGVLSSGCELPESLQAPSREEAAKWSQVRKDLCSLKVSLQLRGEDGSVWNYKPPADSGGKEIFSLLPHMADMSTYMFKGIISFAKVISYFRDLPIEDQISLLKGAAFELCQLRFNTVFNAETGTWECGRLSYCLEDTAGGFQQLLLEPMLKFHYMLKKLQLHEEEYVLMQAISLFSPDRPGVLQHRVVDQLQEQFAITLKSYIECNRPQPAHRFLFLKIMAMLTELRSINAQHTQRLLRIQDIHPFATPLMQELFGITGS

PXR (NR1I2) [2] = molecular target: T1, PXR (NR1I2); test: […] at PXR LBD (unknown origin) expressed in HEK293 cells […] at 1 uM after 16 hrs by luciferase reporter gene assay relative to rifampicin; assay type: ADME, cell-based; conditions: HEK293 cells expressing PXR LBD, read-out: Efficacy
PXR (NR1I2) [3] = molecular target: T1, PXR (NR1I2); test: […] at PXR LBD (unknown origin) expressed in HEK293 cells […] at 10 uM after 16 hrs by luciferase reporter gene assay relative to rifampicin; assay type: ADME, cell-based; conditions: HEK293 cells expressing PXR LBD, read-out: Efficacy
Cytochrome P450 3A4 = Cytochrome P450 3A4 (Homo sapiens, UniProt P08684); test: Inhibition of CYP3A4 (unknown origin); assay type: ADME
Cytochrome P450 3A4, sequence (P08684 whole entry): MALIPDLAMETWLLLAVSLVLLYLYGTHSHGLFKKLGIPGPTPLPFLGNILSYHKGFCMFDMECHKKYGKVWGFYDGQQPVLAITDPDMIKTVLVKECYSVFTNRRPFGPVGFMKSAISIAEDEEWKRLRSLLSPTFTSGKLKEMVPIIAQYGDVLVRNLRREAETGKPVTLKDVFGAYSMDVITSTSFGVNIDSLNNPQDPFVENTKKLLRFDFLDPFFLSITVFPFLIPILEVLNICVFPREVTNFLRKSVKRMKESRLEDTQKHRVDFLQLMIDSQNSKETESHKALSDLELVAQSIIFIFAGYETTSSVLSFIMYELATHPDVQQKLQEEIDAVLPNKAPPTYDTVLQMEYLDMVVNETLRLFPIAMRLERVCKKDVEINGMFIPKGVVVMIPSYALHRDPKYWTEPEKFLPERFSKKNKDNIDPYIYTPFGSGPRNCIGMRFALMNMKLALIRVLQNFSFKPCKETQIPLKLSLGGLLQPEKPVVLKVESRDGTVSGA

[4] = Half life in rat microsomes; assay type: ADME, Microsome
Cytochrome P450 2C9 = Cytochrome P450 2C9 (Homo sapiens, UniProt P11712); test: Inhibition of CYP2C9 (unknown origin); assay type: ADME
Cytochrome P450 2C9, sequence (P11712 whole entry): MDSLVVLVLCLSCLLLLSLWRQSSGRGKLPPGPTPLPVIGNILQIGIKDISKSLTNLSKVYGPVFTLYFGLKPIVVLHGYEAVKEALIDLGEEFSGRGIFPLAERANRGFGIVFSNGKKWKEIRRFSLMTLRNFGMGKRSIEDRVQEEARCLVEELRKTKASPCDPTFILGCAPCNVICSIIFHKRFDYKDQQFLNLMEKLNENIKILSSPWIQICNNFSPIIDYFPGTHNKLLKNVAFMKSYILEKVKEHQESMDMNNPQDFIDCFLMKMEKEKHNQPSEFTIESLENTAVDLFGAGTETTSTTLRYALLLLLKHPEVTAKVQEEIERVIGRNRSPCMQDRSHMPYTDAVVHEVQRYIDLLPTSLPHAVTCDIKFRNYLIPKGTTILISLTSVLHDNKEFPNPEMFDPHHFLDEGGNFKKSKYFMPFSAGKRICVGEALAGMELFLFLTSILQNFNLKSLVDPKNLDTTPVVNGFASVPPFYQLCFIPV

Cytochrome P450 2D6 = Cytochrome P450 2D6 (Homo sapiens, UniProt P10635); test: Inhibition of CYP2D6 (unknown origin); assay type: ADME
Cytochrome P450 2D6, sequence (P10635 whole entry): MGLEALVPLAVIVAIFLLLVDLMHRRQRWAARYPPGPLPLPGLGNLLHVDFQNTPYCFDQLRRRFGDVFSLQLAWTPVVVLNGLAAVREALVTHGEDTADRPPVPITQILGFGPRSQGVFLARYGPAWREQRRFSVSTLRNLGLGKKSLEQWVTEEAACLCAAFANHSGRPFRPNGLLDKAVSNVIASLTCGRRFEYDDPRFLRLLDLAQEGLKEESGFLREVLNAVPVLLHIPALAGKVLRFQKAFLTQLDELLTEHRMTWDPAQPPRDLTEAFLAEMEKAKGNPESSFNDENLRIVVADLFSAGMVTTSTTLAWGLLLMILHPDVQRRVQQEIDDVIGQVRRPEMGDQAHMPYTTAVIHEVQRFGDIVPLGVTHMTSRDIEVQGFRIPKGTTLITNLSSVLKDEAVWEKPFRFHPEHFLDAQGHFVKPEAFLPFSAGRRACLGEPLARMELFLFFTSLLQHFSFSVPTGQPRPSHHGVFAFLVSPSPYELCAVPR

[5] = Half life in human microsomes; assay type: ADME, Microsome
Cytochrome P450 1A2 = molecular target: T2, Cytochrome P450 1A2 (Homo sapiens, UniProt P05177); test: Inhibition of CYP1A2 (unknown origin); assay type: ADME
T2 sequence (P05177 whole entry): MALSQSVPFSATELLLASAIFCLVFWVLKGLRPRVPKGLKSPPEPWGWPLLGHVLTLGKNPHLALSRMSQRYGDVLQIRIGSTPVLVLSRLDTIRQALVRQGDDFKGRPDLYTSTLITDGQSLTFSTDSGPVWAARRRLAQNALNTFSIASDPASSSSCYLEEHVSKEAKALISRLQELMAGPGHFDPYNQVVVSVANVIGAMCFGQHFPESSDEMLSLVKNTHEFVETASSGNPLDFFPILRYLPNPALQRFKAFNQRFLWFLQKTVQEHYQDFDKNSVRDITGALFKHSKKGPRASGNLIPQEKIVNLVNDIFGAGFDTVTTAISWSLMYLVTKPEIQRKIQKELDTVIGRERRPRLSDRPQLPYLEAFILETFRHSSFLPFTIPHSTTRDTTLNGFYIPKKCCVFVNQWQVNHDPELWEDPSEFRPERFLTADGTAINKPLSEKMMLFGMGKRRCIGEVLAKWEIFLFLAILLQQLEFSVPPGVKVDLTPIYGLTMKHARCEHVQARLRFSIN

Cytochrome P450 2C19 = Cytochrome P450 2C19 (Homo sapiens, UniProt P33261); test: Inhibition of CYP2C19 (unknown origin); assay type: ADME
Cytochrome P450 2C19, sequence (P33261 whole entry): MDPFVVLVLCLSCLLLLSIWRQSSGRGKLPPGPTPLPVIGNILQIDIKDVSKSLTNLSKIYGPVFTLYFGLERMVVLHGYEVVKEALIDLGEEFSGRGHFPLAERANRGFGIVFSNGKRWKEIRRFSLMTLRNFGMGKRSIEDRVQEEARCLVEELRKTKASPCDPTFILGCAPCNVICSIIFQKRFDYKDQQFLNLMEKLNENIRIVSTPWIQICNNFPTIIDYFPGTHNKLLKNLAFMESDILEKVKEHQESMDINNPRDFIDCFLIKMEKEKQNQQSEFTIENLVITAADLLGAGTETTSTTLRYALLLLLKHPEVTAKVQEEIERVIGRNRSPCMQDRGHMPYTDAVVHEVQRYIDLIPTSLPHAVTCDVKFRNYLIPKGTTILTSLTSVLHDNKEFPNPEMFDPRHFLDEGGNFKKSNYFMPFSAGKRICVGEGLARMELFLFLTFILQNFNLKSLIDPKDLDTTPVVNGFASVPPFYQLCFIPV

Cytochrome P450 2C8 = molecular target: T3, Cytochrome P450 2C8 (Homo sapiens, UniProt P10632); test: Inhibition of CYP2C8 (unknown origin); assay type: ADME
T3 sequence (P10632 whole entry): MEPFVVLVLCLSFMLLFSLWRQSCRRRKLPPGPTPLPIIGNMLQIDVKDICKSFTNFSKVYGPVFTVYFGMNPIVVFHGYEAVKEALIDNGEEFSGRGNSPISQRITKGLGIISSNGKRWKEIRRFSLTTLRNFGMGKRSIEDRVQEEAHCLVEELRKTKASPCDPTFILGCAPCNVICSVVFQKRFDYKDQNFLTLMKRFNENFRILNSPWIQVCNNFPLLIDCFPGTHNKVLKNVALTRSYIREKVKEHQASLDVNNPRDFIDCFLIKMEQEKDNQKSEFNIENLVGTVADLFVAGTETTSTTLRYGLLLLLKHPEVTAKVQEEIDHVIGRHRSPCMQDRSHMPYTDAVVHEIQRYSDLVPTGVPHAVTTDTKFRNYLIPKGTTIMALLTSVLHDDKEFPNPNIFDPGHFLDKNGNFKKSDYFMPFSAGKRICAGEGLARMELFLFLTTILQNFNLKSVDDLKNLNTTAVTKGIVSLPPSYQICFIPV

[6] = Thermodynamic solubility of the compound in 30 mM phosphate buffer at 10 mM at pH 7 after 2 to 5 days by UV-HPLC analysis; assay type: physicochemical; conditions: read-out: Therm_solubility

Emax at 16 h, 5 µM (PXR (NR1I2) [1]) | Emax at 16 h, 1 µM (PXR (NR1I2) [2]) | Emax at 16 h, 10 µM (PXR (NR1I2) [3]) | SMILES | further results
 | 26% | 94% | CCS(=O)(=O)c1ccc(CNC(=O)c2nc(CC3CCCCC3)c(-c3ccc(S(=O)(=O)NC(C)(C)C)c4ccccc34)s2)cc1 | 
117% | 91% |  | CC(C)(CCF)NS(=O)(=O)c1ccc(-c2sc(C(=O)N[C@H]3C[C@H](C(=O)O)C3)nc2CC2CCCCC2)c2ccccc12 | 
 | 116% | 128% | CC(C)(C)NS(=O)(=O)c1ccc(-c2sc(C(=O)N3CC4(CCS(=O)(=O)CC4)C3)nc2CC2CCCCC2)c2ccccc12 | 
158% | 116% |  | CCC(C)(C)NS(=O)(=O)c1ccc(-c2sc(C(=O)N[C@H]3C[C@H](C(=O)O)C3)nc2CC2CCCCC2)c2ccccc12 | 
 | 155% | 167% | CC(C)(O)CNC(=O)c1nc(CC2CCCCC2)c(-c2ccc(S(=O)(=O)NC3(C#N)CC3)c3ccccc23)s1 | INH (Cytochrome P450 3A4): 0.9 µM; half-life [4]: 15 min; INH (Cytochrome P450 2C9): 0.7 µM; INH (Cytochrome P450 2D6): > 10 µM; half-life [5]: 27 min; solubility thermodynamic at 10000 µM [6]: 10 µM (≈ 5.67 µg/mL); INH (Cytochrome P450 1A2): > 10 µM; INH (Cytochrome P450 2C19): 6.3 µM; INH (Cytochrome P450 2C8): 7.3 µM
80% | 71% |  | C[C@H](NS(=O)(=O)c1ccc(-c2sc(C(=O)NCC(C)(C)O)nc2CC2CC(F)(F)C2)c2ccccc12)C(F)(F)F | 
142% | 110% |  | CC(C)(C)NS(=O)(=O)c1ccc(-c2sc(C(=O)NCC(C)(C)C(N)=O)nc2CC2CCCCC2)c2ccccc12 | 
53% | 15% |  | CC(C)(CCO)NS(=O)(=O)c1ccc(-c2sc(C(=O)N[C@H]3C[C@H](C(=O)O)C3)nc2CC2CCCCC2)c2ccccc12 | 
 | 181% | 206% | CC(C)(C)NS(=O)(=O)c1ccc(-c2sc(C(=O)NC3CCOCC3)nc2CC2CCCCC2)c2ccccc12 | 
 | 181% | 187% | CC(C)(C)NS(=O)(=O)c1ccc(-c2sc(C(=O)NC3CS(=O)(=O)C3)nc2CC2CCCCC2)c2ccccc12 | 
147% | 140% |  | CC(C)(C)NS(=O)(=O)c1ccc(-c2sc(C(=O)NCC3CS(=O)(=O)C3)nc2CC2CCCCC2)c2ccccc12 | 
 | 69% | 116% | CC(C)(C)NS(=O)(=O)c1ccc(-c2sc(C(=O)NC34CC(C(=O)O)(C3)C4)nc2CC2CCCCC2)c2ccccc12 | 
116% | 138% |  | CC(C)(O)CNC(=O)c1nc(CC2CCCCC2)c(-c2ccc(S(=O)(=O)NC(C)(C)C)c3ccccc23)s1 | 

More lines, now with the values behind:

SMILES | Emax at 16 h, 5 µM (PXR (NR1I2) [1]) | Emax at 16 h, 1 µM (PXR (NR1I2) [2]) | Emax at 16 h, 10 µM (PXR (NR1I2) [3]) | further results
C[C@H](NS(=O)(=O)c1ccc(-c2sc(C(=O)N3CC4(C3)CS(=O)(=O)C4)nc2CC2CCC2)c(Cl)c1Cl)C(F)(F)F | 106% | 56% |  | 
C[C@H](NS(=O)(=O)c1ccc(-c2sc(C(=O)N[C@H]3C[C@H](C(=O)O)C3)nc2CC2CCC2)c2ccccc12)C(F)(F)F | 118% | 40% |  | 
CC(C)(C)NS(=O)(=O)c1ccc(-c2sc(C(=O)N[C@H]3C[C@H](C(=O)O)C3)nc2CC2CCCCC2)c(Cl)c1Cl |  | 16% | 23% | 
CC(C)(C)c1cc(-c2sc(C(=O)N[C@H]3C[C@H](C(=O)O)C3)nc2CC2CCCCC2)cc(C(O)(C(F)(F)F)C(F)(F)F)c1 | 89% | 41% |  | 
C[C@H](NC(=O)c1cc(-c2sc(C(=O)N[C@H]3C[C@H](C(=O)O)C3)nc2CC2CCCCC2)cc(C2(C#N)CC2)c1)C(F)(F)F | 7.5% | 3.1% |  | 
CC(C)(O)CNC(=O)c1nc(CC2CCCCC2)c(-c2ccc(S(=O)(=O)NC(C)(C)C)c(Cl)c2C(F)F)s1 |  |  |  | INH (Cytochrome P450 3A4): 6.9 µM; half-life [4]: 14 min; INH (Cytochrome P450 2C9): 0.4 µM; INH (Cytochrome P450 2D6): > 10 µM; half-life [5]: 18 min; INH (Cytochrome P450 1A2): > 10 µM; INH (Cytochrome P450 2C19): 5.6 µM; INH (Cytochrome P450 2C8): 4.6 µM
C[C@H](NS(=O)(=O)c1ccc(-c2sc(C(=O)NCC(C)(C)O)nc2Cc2ccc(F)cc2)c(Cl)c1Cl)C(F)(F)F | 134% | 80% |  | 
C[C@H](NC(=O)c1cc(-c2sc(C(=O)N[C@H]3C[C@H](C(=O)O)C3)nc2CC2CCCCC2)cc(C(C)(C)C)c1)C(F)(F)F | 59% | 29% |  | 
CC(C)(C)NC(=O)c1cc(-c2sc(C(=O)N[C@H]3C[C@H](C(=O)O)C3)nc2CC2CCCCC2)cc(C2(C)CC2)c1 |  | 11% | 53% | 
CC(C)(C)NS(=O)(=O)c1ccc(-c2sc(C(=O)N[C@H]3C[C@H](C(=O)O)C3)nc2CC2CCCCC2)c2c1CCCC2 |  | 10% | 20% | INH (Cytochrome P450 3A4): > 10 µM; half-life [4]: 22 min; INH (Cytochrome P450 2C9): > 10 µM; INH (Cytochrome P450 2D6): > 10 µM; half-life [5]: 16 min; solubility thermodynamic at 10000 µM [6]: < 1 µM; INH (Cytochrome P450 1A2): > 10 µM; INH (Cytochrome P450 2C19): > 10 µM; INH (Cytochrome P450 2C8): 4.2 µM
C[C@H](NS(=O)(=O)c1ccc(-c2sc(C(=O)NCC(C)(C)O)nc2COC(C)(C)C)c(Cl)c1Cl)C(F)(F)F | 117% | 61% |  | INH (Cytochrome P450 3A4): > 10 µM; half-life [4]: > 180 min; INH (Cytochrome P450 2C9): 1.7 µM; INH (Cytochrome P450 2D6): > 10 µM; half-life [5]: > 180 min; solubility thermodynamic at 10000 µM [6]: 12 µM (≈ 7.28 µg/mL); INH (Cytochrome P450 2C19): 6.5 µM; INH (Cytochrome P450 2C8): > 10 µM
CC[C@H](NC(=O)c1cc(-c2sc(C(=O)N[C@H]3C[C@H](C(=O)O)C3)nc2CC2CCCCC2)cc(C2(C)CC2)c1)C(F)(F)F | 71% | 32% |  | 
CC(C)(C)NS(=O)(=O)c1ccc(-c2sc(C(=O)NC3CCS(=O)(=O)CC3)nc2C(C)(C)C)c2ccccc12 | 112% | 66% |  | 
CC(C)(O)CNC(=O)c1nc(CC2CCCCC2)c(-c2cnc(S(=O)(=O)NC(C)(C)C)c3ccccc23)s1 |  |  |  | INH (Cytochrome P450 3A4): > 10 µM; half-life [4]: 5.2 min; INH (Cytochrome P450 2C9): 1.1 µM; INH (Cytochrome P450 2D6): > 10 µM; half-life [5]: 23 min; solubility thermodynamic at 10000 µM [6]: < 4 µM; INH (Cytochrome P450 1A2): > 10 µM; INH (Cytochrome P450 2C19): 7.6 µM; INH (Cytochrome P450 2C8): > 10 µM
C[C@H](NS(=O)(=O)c1cc(-c2sc(C(=O)N[C@H]3C[C@H](C(=O)O)C3)nc2CC2CCCCC2)cc(C(C)(C)C)c1)C(F)(F)F | 159% | 157% |  | 
C[C@H](NC(=O)c1cc(-c2sc(C(=O)N[C@H]3C[C@H](C(=O)O)C3)nc2CC2CCCCC2)cc(C2(C)CC2)c1)C(F)(F)F |  | 26% | 94% | INH (Cytochrome P450 3A4): > 10 µM; half-life [4]: 150 min; INH (Cytochrome P450 2C9): > 10 µM; INH (Cytochrome P450 2D6): > 10 µM; half-life [5]: > 180 min; solubility thermodynamic at 10000 µM [6]: 17 µM (≈ 10.1 µg/mL); INH (Cytochrome P450 1A2): > 10 µM; INH (Cytochrome P450 2C19): > 10 µM; INH (Cytochrome P450 2C8): > 10 µM
